The record followed here is US12552773B2, “Compound for specifically enhancing spatial coupling degree of TRPV4-KCa2.3 complex and use thereof” (Jiangnan University, priority 2020, dated 2026).

For data set [1], the target named is T1, TRPV4-KCa2.3 complex (Mus musculus, UniProt P58391+Q9EPK8).
T1 construct: endogenous in cells
Nature of the data set: In vitro coupling activity test (FRET, immunostained endothelial cells). It is filed as cell-based, mice. The following applies: for Fret efficiency value (average value): endothelial cells, 10 μmol/L, 24 hours, higher value = higher degree of coupling; for coupling between the TRPV4 and the KCa2.3: high-salt state, cells incubated 24 hours, compared with JNC-440. The procedure: Endothelial cells were cultured for 3-5 days, separately incubated with the compounds in Examples 1, 2, 3, 4, 5 and 6 with a concentration of 10 μmol/L for 24 hours, fixed with 4% paraformaldehyde for 30 minutes, permeabilized with PBS containing 0.2% Triton X-100 for 10 minutes and blocked with PBS containing 5% BSA for 1 hour. Then, the cells were sequentially stained with TRPV4-550 as a primary antibody, KCa2.3 as a coupled secondary antibody (Life Technologies) and DAPI (Vector Laboratories, Burlingame, CA, USA). A laser confocal microscope was used for photographing, and a Fret value was calculated.
A higher value indicated a higher degree of coupling between the two proteins.
With reference to FIG. 3, the compound obtained in Example 1 was abbreviated as compound 365; the compound obtained in Example 2 was abbreviated as compound 366; the compound obtained in Example 3 was abbreviated as compound 491; the compound obtained in Example 4 was abbreviated as compound 437; the compound obtained in Example 5 was abbreviated as compound 455; and the compound obtained in Example 6 was abbreviated as compound 469. HS referred to hypertensive mice induced by a high-salt diet, and WT referred to normal wild-type mice.

Data set [2] relates to hypertensive mice induced by a high-salt diet. Put plainly: Effects on blood pressure of hypertensive mice in vivo (tail-cuff). The following applies: intragastric, 30 mg/kg; for Mean arterial pressure change value: maximum drop of the blood pressure. Here is the method:
The blood pressure of mice was determined by using an IITC non-invasive sphygmomanometer and a tail-cuff method. At first, the mice were trained every day for at least a week with half an hour each time. During each test, a systolic blood pressure value, a diastolic blood pressure value, a mean arterial pressure value and a heart rate could be obtained. After adaption, the mice were administered intragastrically with the compounds in Examples 4 and 5 with a dosage of 30 mg/kg, and then the blood pressure of the hypertensive mice was measured within a regular time. According to results, it was shown that after the compound in Example 4 was used, the blood pressure was reduced for only 1.5 h; and after the compound in Example 5 was used, the blood pressure could be reduced for 8 h.
(§1) According to a line chart in FIG. 4, the abscissa referred to time with h as the unit; and the ordinate referred to systolic blood pressure (SBP), mean arterial pressure (MAP) and diastolic blood pressure (DBP) with mmHg as the unit. […] According to a histogram, the ordinate referred to changes of the mean arterial pressure with mmHg as the unit. […] HS referred to the hypertensive mice induced by a high-salt diet (model mice used in in vivo experiments in this example). WT referred to normal wild-type mice. A control group Ctrl referred to model mice administered intragastrically with normal saline rather than the compounds involved in this application.
as §1, with “5,” for “4,”

The nature of data set [3]: In vitro metabolism in liver microsomes, dog. Format: in vitro ADME. The procedure:
(§2) An in vitro metabolic incubation system with a total volume of 207 μL and an organic solvent less than 1% included 188 μL of a 0.1 mol/L PBS buffer (pH 7.4) and 12 μL of an NADPH generation system (prepared by mixing 10 μL of a solution A and 2 μL of a solution B on an ice bath before use). 2 μL of the compounds in Examples 4 and 5 with a concentration of 20 μm/L were added into the incubation system on an ice bath for pre-incubation in a water bath at 37° C. for 5 minutes. Then, 5 μL of liver microsomal enzymes of different species were added on an ice bath for uniform mixing and incubation in a water bath at 37° C. 400 μl of glacial acetonitrile (containing 50 ng/ml of an internal standard (caffeine)) was separately added at 0 minute, 10 minutes, 30 minutes, 60 minutes, 90 minutes, 120 minutes, 180 minutes, 360 minutes and 480 minutes to stop a reaction, and a parallel experiment was carried out 3 times. A rotation speed was 13,000 rpm/15 min. A supernatant was taken and detected by using an ultra-high performance liquid chromatography-quadrupole time-of-flight mass spectrometer.
(In general: Microsomes from liver hold many membrane-bound enzymes, among them those of drug oxidation.)

Data set [4] in a line: In vitro metabolism in liver microsomes, mouse. Format: in vitro ADME. The following applies: for In vivo inherent clearance rate: from mouse liver microsomes; for half-life at 0.193 µM: mouse, liver microsomes, pH 7.4, mouse liver microsomes; for microsomal CLint at 0.193 µM: pH 7.4, read-out: Inherent clearance rate in liver microsomes. Here is the method:
as §2

For data set [5], the system named is Mesenteric primary endothelial cells. Nature of the data set: Determination of intracellular K+ (PBFI fluorescence ratio). Format: cell-based. The following applies: high-salt state, 10 μmol/L, 24 hours, versus no drug. The procedure:
Mesenteric primary endothelial cells were cultured for 3-5 days and separately incubated with the compounds in Examples 4, 5 and 6 with a concentration of 10 μmol/L for 24 hours. A culture medium was removed. The cells and NPSS containing PBFI were incubated in an incubator at a ratio of 1:200 at 37° C. in a dark environment.
An Olympus fluorescence imaging system was used for measuring fluorescence with dual excitation at 340 nm and 380 nm. Changes of [K^+] were calculated as changes of a PBFI ratio.

The nature of data set [6]: In vitro metabolism in liver microsomes of different species (overall statement). Format: in vitro ADME. The following applies: for metabolism differences between species: liver microsomes of different species; for half-life at 0.193 µM: mouse, rat, human, dog (Example 4), human (Example 5), liver microsomes, pH 7.4, liver microsomes, overall over the species. Here is the method: as §2

Data set [7] is described as follows: In vitro metabolism in liver microsomes, human. Format: in vitro ADME. Conditions: for In vivo inherent clearance rate: from human liver microsomes; for half-life at 0.193 µM: human, liver microsomes, pH 7.4, human liver microsomes, read-out: Half-life obtained after incubation in liver microsomes of human (converted); for microsomal CLint at 0.193 µM: pH 7.4, read-out: Inherent clearance rate in liver microsomes. Here is the method:
as §2

Data set [8] can be described thus: In vitro metabolism in liver microsomes, rat. Format: in vitro ADME. The procedure: as §2

T1 sequence (Q9EPK8 whole entry): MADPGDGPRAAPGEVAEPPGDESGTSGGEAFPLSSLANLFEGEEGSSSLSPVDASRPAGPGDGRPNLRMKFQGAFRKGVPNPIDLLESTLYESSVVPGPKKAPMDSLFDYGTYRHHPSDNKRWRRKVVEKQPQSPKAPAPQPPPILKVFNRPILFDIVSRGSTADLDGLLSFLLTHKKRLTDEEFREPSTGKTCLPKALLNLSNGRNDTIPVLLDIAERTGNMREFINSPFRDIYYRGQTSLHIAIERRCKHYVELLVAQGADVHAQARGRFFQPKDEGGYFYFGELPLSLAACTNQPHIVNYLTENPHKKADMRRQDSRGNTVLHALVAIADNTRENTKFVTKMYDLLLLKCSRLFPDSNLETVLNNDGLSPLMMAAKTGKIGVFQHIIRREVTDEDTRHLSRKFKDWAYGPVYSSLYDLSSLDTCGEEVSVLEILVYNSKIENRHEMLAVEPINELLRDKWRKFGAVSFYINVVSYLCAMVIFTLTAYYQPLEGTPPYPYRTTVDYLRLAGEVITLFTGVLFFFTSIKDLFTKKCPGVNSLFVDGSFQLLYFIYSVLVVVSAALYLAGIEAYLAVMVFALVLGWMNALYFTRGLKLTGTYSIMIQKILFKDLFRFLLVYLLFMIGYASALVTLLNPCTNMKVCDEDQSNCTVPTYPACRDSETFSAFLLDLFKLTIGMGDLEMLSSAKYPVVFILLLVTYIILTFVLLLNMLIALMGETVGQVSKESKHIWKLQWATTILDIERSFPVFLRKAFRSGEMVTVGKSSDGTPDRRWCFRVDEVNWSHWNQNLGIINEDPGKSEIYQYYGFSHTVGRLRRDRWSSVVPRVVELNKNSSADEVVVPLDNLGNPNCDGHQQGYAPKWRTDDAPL
T1 sequence (P58391 whole entry): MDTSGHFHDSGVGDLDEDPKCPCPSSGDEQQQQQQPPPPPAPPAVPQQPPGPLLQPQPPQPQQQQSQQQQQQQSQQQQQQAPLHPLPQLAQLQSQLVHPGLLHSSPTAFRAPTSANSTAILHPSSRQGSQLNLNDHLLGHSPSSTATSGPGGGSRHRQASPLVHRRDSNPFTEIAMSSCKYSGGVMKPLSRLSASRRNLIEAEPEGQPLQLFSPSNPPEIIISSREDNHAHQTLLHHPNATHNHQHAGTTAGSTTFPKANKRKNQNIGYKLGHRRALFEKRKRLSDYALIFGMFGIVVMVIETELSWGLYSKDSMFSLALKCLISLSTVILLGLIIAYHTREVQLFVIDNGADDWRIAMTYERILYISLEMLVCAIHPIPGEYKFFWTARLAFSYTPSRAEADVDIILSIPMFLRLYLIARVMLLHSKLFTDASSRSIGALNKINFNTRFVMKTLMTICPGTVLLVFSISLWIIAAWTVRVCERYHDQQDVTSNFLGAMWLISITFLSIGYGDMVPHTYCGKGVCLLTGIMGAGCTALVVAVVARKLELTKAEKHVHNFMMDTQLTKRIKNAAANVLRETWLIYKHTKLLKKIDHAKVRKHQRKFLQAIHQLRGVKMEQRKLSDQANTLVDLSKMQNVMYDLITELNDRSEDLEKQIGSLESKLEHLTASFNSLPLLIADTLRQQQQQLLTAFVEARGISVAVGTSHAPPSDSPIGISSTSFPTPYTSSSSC

As for `O=C(Cc1ccncc1)NCCCNC(=O)c1nc(=O)c2ccccc2[nH]1` [Example 1, 4-oxo-N-(3-(2-(pyridin-4-yl)acetamido)propyl)-1,4-dihydroquinazoline-2-carboxamide], in data set [1], the “Fret efficiency value (average value)” value came to 6.06; the “coupling between the TRPV4 and the KCa2.3” value is “enhanced”.

For the compound `O=C(NCCCNC(=O)c1nc(=O)c2ccccc2[nH]1)Nc1ccncc1` [Example 2, 4-oxo-N-(3-(3-(pyridin-4-yl)ureido)propyl)-1,4-dihydroquinazoline-2-carboxamide], in data set [1], the “Fret efficiency value (average value)” value was 5.98; the “coupling between the TRPV4 and the KCa2.3” value is given as “enhanced”.

As for `CCN1CCN(Cc2ccc(NC(=O)NCCCNC(=O)c3nc(=O)c4ccccc4[nH]3)cc2)CC1` [Example 3], in data set [1], the “Fret efficiency value (average value)” value is recorded as 5.62; the “coupling between the TRPV4 and the KCa2.3” value is reported as “enhanced”.

As to `CCN1CCN(Cc2ccc(NC(=O)NCCCCC(=O)Nc3ccccc3)cc2)CC1` [Example 4, 5-(3-(4-((4-ethylpiperazin-1-yl)methyl)phenyl)ureido)-N-phenylpentaneamide], in data set [2], the “time for which the blood pressure was reduced” value came to 1.5 h. In addition, the “Mean arterial pressure change value” in data set [2] was 16 mmHg. Also, the “In vivo inherent clearance rate” value stood at 15.91 ml · ^1min · kg^−1 in data set [3] (from dog liver microsomes), 40.21 ml · ^1min · kg^−1 in data set [4], 9.43 ml · ^1min · kg^−1 in data set [7] and 15.07 ml · ^1min · kg^−1 in data set [8] (from rat liver microsomes). The half-life at 0.193 µM in data set [3] (pH 7.4, dog liver microsomes) is 2.23 h; in data set [4], 2.34 h; in data set [6], roughly 2.5 h; in data set [7] (37° C., NADPH), 2.44 h; in data set [8] (pH 7.4, rat liver microsomes) it was 2.85 h. Besides, the microsomal CLint at 0.193 µM in data set [3] (pH 7.4, dog liver microsomes, read-out: Inherent clearance rate in liver microsomes) worked out at 11 µL/min/mg; in data set [4] (mouse liver microsomes), 10 µL/min/mg; in data set [7] (human liver microsomes) it was 9.5 µL/min/mg; in data set [8] (pH 7.4, rat liver microsomes, read-out: Inherent clearance rate in liver microsomes), 8.4 µL/min/mg. Besides, the “Fret efficiency value (average value)” value in data set [1] was found to be 8.15. For the same compound, the “coupling between the TRPV4 and the KCa2.3” value in data set [1] is “enhanced”. Further, the “outflow ability of the intracellular potassium ions (changes of [K+])” value (“outflow ability … (changes of [K+])” below) in data set [5] is listed as “significantly improved”. Besides, in data set [6], the “metabolism differences between species” value was “no metabolism differences between species”.

In the case of `CCN1CCN(Cc2ccc(NC(=O)NCCCCC(=O)Nc3ccc(F)cc3)cc2)CC1` [Example 5, 5-(3-(4-((4-ethylpiperazin-1-yl)methyl)phenyl)ureido)-N-(4-fluorophenyl)pentaneamide], in data set [2], the “time for which the blood pressure was reduced” value is listed as 8 h and the “Mean arterial pressure change value” came to 38 mmHg. Besides, in data set [4], the “In vivo inherent clearance rate” value was 7.065 ml · ^1min · kg^−1 and the half-life at 0.193 µM was 4.23 h. For the same compound, in data set [4] (mouse liver microsomes), the “Half-life in liver microsomes” value came to 3.35 h and the microsomal CLint at 0.193 µM was 7.1 µL/min/mg. In data set [1], the “Fret efficiency value (average value)” value was 7.68; the “coupling between the TRPV4 and the KCa2.3” value was “enhanced”. In data set [5], the “outflow ability … (changes of [K+])” value is reported as “significantly improved”. In data set [6], the “metabolism differences between species” value is on record as “no metabolism differences between species” and the half-life at 0.193 µM is 4 ± 0.5 h. The “In vivo inherent clearance rate” value in data set [7] is on record as 22.326 ml · ^1min · kg^−1. For the same compound, the “Half-life obtained after incubation in liver microsomes of human” value in data set [7] (human liver microsomes, 37° C., NADPH) is given as 4.23 h. In addition, the half-life at 0.193 µM in data set [7] (37° C., NADPH) was 3.35 h. In addition, the microsomal CLint at 0.193 µM in data set [7] (human liver microsomes) is 5.7 µL/min/mg.

`CCN1CCN(Cc2ccc(NC(=O)NCCCCCNC(=O)c3ccc(F)cc3)cc2)CC1` [Example 6]: in data set [1], the “Fret efficiency value (average value)” value turned out to be 7.98; the “coupling between the TRPV4 and the KCa2.3” value is on record as “enhanced”. Also, in data set [5], the “outflow ability … (changes of [K+])” value was “significantly improved”.

As to `O=C(NCCCNC(=O)C(c1ccccc1)c1ccccc1)c1nc(=O)c2ccccc2[nH]1` [JNC-440, reference compound], in data set [2], the “Mean arterial pressure change value” is 10 mmHg. The “Fret efficiency value (average value)” value in data set [1] is 5.02. For the same compound, in data set [7] (37° C., NADPH), the half-life at 0.193 µM was 0.813 h.

For orientation: half-life means the time in which the quantity being followed falls by half.
